The source of these data is patent US20210221822A1, “TRICYCLIC DERIVATIVES INHIBITOR, PREPARATION METHOD, AND APPLICATIONS THEREOF” (Jiangsu Hansoh Pharmaceutical Group Co., Ltd., priority 2018, published 2021).

For experiment [1], the system named is PI3Kα mutant cancer cells HCC1954 (H1047R). Briefly: Cell Titer-Glo proliferation inhibition, HCC1954. The format is cell-based. As to conditions: Homo sapiens, 48 to 96 hours. As to the method: (§1) Experimental method: The proliferation inhibitory effect of the compounds of the examples on PI3Kα mutant cancer cell lines HCC1954, HGC-27 and MKN1 was determined by Cell Titer-Glo method. The cell lines were cultured in RPMI 1640 medium (Gibco #22400089) containing 10% FBS (Gibco #10091148) and 1% P/S (Hyclone #SV30010) at 37° C. and 5% CO2. Before the experiment, the cells were collected and counted, and then the cell density was adjusted. The cells were inoculated in a white 96-well plate (Corning #3610) at a density of 1000 to 10000 cells/well, and incubated in an incubator at 37° C., 5% CO2 overnight. The compound solution of different concentrations was added, and corresponding vehicle control was set at the same time. The cell plate was further incubated in an incubator at 37° C., 5% CO2 for 48 to 96 hours. The cell plate and its content were equilibrated to room temperature. 20 to 100 μL of Cell Titer-Glo solution (Promega #G7573) was added to each well, and the plate was shaked well and incubated at room temperature in the dark for 5 to 30 minutes. The chemiluminescence value was measured by the BioTek SynergyH1 microplate reader.
(§2) The percentage inhibition data of the well treated by the compounds of the examples was calculated through the vehicle control well on the plate {% inhibition rate=100−(test compound value/vehicle control value)×100}. The IC50 value was calculated by fitting the data of different concentrations and corresponding percentage inhibition rates to a four-parameter nonlinear logic formula with GraphPad prism.
(In general: Cellular ATP, detected with luciferase, serves as a proxy for viable cell number.)

Another experiment concerns the target T1, PI3Kγ (Homo sapiens, UniProt P48736).
T1 construct: purchased Thermofisher PV4786
Briefly: ADP-Glo lipid kinase assay, PI3Kγ kinase activity. The format is biochemical. As to conditions: 0.4 nM enzyme, 120 min, 50 μM ATP. The procedure, abridged:
(§3)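 ADP-Glo luminescence measured ADP formed by PI3Kα, β, γ or δ (0.1-2 nM working solution) with PIP2:3PS (50 μM added solution) and ATP in HEPES/MgCl2/NaCl/BSA buffer, 90 to 120 min at room temperature. % inhibition was set against DMSO and no-kinase controls, and IC50 came from a four-parameter fit.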
In general terms: ADP-Glo first removes unused ATP, then detects ADP through luciferase.

In the next experiment the target is T2, PI3Kα (Homo sapiens, UniProt P42336).
T2 construct: purchased Promega V1721
T2 sequence (P42336 whole entry): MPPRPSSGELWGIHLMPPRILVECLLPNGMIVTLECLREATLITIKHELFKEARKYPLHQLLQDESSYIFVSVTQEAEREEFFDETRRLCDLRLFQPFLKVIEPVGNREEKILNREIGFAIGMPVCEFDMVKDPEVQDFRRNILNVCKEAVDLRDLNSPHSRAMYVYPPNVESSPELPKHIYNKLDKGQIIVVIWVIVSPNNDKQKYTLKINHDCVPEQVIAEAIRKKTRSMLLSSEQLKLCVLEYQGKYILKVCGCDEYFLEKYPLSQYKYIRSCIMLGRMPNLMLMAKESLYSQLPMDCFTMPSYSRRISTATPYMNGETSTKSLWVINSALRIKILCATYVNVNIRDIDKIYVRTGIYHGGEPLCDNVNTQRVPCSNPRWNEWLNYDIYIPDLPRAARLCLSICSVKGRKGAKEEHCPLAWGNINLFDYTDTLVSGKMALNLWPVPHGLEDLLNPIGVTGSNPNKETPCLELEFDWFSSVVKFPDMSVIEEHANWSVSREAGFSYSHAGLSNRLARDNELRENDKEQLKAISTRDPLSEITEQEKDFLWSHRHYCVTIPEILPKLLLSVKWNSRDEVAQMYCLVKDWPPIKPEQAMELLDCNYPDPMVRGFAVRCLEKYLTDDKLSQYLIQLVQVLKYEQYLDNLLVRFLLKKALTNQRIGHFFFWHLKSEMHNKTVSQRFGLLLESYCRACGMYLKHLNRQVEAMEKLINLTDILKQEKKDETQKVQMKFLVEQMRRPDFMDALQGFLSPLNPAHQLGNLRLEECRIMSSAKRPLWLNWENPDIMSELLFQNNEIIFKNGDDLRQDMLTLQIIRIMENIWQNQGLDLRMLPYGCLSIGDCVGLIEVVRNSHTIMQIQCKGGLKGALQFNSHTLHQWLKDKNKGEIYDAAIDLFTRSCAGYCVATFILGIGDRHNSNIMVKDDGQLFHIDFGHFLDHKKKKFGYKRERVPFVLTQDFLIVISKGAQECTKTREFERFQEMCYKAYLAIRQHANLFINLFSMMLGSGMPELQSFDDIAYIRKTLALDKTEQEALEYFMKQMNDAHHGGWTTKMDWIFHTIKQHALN
T2 sequence (P27986 whole entry partner): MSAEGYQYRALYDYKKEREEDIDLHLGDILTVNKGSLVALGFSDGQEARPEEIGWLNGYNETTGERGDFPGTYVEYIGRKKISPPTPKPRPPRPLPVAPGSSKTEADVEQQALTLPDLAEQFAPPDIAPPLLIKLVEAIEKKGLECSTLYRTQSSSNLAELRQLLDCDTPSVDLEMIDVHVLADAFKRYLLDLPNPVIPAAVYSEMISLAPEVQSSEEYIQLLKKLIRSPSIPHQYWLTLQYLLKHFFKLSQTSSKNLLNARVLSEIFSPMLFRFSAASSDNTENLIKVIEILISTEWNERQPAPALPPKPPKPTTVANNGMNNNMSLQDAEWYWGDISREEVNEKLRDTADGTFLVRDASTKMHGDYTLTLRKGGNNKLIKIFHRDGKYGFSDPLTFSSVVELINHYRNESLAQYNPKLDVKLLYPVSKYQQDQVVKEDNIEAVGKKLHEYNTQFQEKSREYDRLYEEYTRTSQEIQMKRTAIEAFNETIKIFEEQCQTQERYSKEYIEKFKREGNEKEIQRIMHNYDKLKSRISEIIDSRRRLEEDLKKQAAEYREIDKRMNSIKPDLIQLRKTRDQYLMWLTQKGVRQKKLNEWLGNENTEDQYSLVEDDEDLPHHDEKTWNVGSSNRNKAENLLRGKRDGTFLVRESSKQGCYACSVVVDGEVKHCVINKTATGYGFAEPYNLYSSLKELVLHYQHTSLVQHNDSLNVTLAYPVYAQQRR
Briefly: ADP-Glo lipid kinase assay, PI3Kα kinase activity. The format is biochemical. To be noted: for IC50: ADP-Glo, 0.1 nM enzyme, 120 min, 50 μM ATP; for Selectivity of PI3Kα vs PI3Kβ: ratio of IC50 PI3Kβ to IC50 PI3Kα; for Selectivity of PI3Kα vs PI3Kγ: ratio of IC50 PI3Kγ to IC50 PI3Kα; for Selectivity of PI3Kα vs PI3Kδ: ratio of IC50 PI3Kδ to IC50 PI3Kα. The procedure, abridged:
as §3

Experiment [2] relates to PI3Kα mutant cancer cells HGC-27 (E542K). Briefly: Cell Titer-Glo proliferation inhibition, HGC-27. The format is cell-based. As to conditions: Homo sapiens, 48 to 96 hours. As to the method: as §1, §2
Another experiment has as its target T3, PI3Kβ (Homo sapiens, UniProt P42338).
T3 construct: purchased Carna 11-102
Briefly: ADP-Glo lipid kinase assay, PI3Kβ kinase activity. The format is biochemical. To be noted: 0.4 nM enzyme, 90 min, 100 μM ATP. The procedure, abridged:
as §3

In experiment [3] the test system is PI3Kα mutant cancer cells MKN1 (E545K). Briefly: Cell Titer-Glo proliferation inhibition, MKN1. The format is cell-based. To be noted: Homo sapiens, MKN-1, 48 to 96 hours. As to the method:
as §1, §2

A further experiment addresses T4, PI3Kδ (Homo sapiens, UniProt O00329).
T4 construct: purchased Carna 11-103
Briefly: ADP-Glo lipid kinase assay, PI3Kδ kinase activity. The format is biochemical. As to conditions: 0.1 nM enzyme, 90 min, 100 μM ATP. The procedure, abridged: as §3

T1 sequence (P48736 whole entry): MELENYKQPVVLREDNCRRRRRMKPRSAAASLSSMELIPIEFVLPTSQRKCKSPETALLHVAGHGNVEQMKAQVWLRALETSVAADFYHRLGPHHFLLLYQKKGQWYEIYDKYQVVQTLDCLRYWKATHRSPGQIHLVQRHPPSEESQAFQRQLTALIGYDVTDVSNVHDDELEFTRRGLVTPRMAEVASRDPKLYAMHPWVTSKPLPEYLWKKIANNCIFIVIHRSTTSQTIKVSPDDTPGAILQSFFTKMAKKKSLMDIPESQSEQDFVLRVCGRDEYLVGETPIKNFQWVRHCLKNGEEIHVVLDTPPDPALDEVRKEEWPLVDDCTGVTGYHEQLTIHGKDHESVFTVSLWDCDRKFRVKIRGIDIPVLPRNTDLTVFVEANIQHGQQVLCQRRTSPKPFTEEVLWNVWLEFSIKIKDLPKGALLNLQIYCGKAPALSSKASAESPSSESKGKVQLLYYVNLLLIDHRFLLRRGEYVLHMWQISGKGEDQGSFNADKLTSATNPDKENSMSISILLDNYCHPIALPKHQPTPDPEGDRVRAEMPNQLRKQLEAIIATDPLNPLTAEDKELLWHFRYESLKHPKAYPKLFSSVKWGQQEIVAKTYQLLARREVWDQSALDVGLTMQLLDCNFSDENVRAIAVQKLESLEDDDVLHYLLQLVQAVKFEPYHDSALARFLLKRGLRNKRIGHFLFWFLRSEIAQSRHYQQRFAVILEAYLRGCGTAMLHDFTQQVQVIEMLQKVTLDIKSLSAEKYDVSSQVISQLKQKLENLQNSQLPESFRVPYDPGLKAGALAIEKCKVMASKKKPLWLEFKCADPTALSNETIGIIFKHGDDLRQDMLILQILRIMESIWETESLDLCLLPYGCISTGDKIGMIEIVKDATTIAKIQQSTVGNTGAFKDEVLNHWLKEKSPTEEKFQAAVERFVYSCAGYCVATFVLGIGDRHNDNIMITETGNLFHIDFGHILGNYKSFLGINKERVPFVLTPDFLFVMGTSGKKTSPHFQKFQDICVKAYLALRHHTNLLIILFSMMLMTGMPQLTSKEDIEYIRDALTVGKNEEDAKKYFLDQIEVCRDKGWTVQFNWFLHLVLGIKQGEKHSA
T3 sequence (P42338 whole entry): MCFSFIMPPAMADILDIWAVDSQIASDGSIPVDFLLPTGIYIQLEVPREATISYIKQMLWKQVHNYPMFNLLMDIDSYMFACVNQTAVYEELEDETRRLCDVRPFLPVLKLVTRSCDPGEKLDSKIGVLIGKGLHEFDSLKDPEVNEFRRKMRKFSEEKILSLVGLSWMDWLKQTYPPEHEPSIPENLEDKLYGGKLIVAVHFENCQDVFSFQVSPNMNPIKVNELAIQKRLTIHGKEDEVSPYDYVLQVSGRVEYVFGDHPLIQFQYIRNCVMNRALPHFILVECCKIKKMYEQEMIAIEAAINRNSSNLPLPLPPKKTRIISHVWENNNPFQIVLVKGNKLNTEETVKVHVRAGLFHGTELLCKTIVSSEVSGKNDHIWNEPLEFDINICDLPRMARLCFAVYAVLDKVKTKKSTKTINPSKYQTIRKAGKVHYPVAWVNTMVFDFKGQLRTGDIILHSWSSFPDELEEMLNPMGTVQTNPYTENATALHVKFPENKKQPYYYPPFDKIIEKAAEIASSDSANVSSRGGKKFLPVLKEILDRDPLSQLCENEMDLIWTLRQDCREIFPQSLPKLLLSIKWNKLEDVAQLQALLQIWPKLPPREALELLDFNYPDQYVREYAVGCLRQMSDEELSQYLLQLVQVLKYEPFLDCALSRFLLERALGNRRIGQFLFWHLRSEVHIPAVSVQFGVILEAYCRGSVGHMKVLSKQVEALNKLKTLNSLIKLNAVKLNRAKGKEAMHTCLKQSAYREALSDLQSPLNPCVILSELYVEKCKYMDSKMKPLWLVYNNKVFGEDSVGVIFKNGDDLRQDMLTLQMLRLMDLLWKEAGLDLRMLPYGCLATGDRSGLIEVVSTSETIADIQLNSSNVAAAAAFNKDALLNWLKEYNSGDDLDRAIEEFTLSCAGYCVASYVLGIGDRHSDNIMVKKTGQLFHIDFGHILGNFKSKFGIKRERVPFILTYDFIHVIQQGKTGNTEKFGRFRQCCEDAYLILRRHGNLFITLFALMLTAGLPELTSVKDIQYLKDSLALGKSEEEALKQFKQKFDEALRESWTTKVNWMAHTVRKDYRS
T3 sequence (P27986 whole entry partner): as the sequence (P27986 whole entry partner) above
T4 sequence (O00329 whole entry): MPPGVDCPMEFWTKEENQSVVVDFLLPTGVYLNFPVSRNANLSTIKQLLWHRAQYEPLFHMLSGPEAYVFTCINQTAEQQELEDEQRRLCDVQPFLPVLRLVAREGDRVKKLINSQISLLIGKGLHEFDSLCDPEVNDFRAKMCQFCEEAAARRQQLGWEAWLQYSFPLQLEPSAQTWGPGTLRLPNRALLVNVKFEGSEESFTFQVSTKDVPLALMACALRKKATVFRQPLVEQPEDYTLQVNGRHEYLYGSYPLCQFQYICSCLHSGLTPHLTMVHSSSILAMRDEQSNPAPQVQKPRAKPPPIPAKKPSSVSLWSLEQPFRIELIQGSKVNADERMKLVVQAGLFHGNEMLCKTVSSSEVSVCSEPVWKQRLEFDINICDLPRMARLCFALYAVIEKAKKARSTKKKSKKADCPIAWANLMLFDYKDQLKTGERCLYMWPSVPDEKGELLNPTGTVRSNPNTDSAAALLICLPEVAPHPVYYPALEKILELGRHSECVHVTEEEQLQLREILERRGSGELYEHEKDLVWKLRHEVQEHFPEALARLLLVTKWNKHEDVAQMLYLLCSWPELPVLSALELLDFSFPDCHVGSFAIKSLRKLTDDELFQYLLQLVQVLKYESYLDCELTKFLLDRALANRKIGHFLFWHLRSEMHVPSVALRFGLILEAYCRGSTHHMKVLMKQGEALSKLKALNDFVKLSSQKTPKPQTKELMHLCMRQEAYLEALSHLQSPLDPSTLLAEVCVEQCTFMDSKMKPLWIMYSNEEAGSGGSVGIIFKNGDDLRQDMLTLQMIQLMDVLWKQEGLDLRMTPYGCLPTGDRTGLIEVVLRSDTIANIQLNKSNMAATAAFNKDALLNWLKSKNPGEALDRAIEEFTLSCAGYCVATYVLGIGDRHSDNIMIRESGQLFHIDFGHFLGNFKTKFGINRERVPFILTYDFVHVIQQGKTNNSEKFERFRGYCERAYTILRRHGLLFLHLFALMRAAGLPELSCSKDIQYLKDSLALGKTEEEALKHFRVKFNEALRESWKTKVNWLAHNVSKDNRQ
T4 sequence (P27986 whole entry partner): as the sequence (P27986 whole entry partner) above

In the case of `C[C@H](Nc1ccc2c(c1)OCCn1cc(N3C(=O)SC[C@H]3CC#N)nc1-2)C(N)=O` [Example 119, (S)-2-((2-((R)-4-(cyanomethyl)-2-oxothiazolidin-3-yl)-5,6-dihydrobenzo[f]imidazo[1,2-d][1,4]oxazepin-9-yl)amino)propanamide], the IC50 was 0.134 µM in experiment [1]; 0.116 µM at PI3Kγ; 0.0024 µM at PI3Kα; 0.358 µM in experiment [2]; 0.407 µM at PI3Kβ; 0.304 µM in experiment [3]. For the same compound, on PI3Kδ, the half-inhibitory concentration (IC50) was found to be 0.071 µM. On PI3Kα, the “Selectivity of PI3Kα vs PI3Kβ” value is on record as 170. On PI3Kα, the “Selectivity of PI3Kα vs PI3Kγ” value amounted to 48. The “Selectivity of PI3Kα vs PI3Kδ” value at PI3Kα amounted to 30.

Regarding `C[C@H](Nc1ccc2c(c1)OCCn1cc(N3C(=O)CN(C)C[C@H]3C(F)F)nc1-2)C(N)=O` [Example 69, (S)-2-((2-((S)-2-(difluoromethyl)-4-methyl-6-oxopiperazin-1-yl)-5,6-dihydrobenzo[f]imidazo[1,2-d][1,4]oxazepin-9-yl)amino)propanamide], the 50% inhibitory concentration (IC50) was 0.601 µM in experiment [1]; 0.332 µM at PI3Kγ; 0.0021 µM at PI3Kα; 0.433 µM in experiment [2]; 3.18 µM at PI3Kβ; 0.584 µM in experiment [3]. For the same compound, at PI3Kδ, the 50% inhibitory concentration (IC50) amounted to 0.142 µM. The “Selectivity of PI3Kα vs PI3Kβ” value on PI3Kα is recorded as 1514. Moreover, the “Selectivity of PI3Kα vs PI3Kγ” value on PI3Kα came out at 158. Besides, the “Selectivity of PI3Kα vs PI3Kδ” value at PI3Kα came to 68.

By IC50 is commonly meant the concentration that inhibits the measured activity by half.
